Experimental data taken from BindingDB's records for patent US20240308995 (Biogen Ma, 2024).

Biological target: T1, Protein O-GlcNAcase (Homo sapiens, UniProt O60502)
T1 sequence (O60502 whole entry): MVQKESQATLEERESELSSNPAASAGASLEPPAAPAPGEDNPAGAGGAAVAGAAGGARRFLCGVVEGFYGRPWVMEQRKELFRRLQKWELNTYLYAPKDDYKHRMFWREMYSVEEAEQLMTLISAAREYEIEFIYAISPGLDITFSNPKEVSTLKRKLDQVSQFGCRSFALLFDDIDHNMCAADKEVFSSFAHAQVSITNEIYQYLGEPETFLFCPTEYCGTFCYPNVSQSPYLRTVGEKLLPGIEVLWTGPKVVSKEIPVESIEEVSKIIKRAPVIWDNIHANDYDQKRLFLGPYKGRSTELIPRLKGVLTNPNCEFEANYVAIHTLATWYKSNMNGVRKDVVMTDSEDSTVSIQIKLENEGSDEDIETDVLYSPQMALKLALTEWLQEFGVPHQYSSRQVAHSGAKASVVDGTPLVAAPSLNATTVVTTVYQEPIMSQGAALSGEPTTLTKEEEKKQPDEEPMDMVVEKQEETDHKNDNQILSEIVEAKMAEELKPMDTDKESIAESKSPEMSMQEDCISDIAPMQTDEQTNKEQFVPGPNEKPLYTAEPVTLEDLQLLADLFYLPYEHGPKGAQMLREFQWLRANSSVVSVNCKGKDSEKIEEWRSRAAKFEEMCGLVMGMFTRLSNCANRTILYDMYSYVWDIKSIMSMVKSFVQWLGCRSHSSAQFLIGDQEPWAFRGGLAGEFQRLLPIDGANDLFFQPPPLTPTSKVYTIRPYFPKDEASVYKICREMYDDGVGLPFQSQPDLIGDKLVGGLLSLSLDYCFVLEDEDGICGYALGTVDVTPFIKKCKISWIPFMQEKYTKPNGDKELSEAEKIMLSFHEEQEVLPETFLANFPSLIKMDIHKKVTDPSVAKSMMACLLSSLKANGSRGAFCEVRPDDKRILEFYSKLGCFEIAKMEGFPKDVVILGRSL
Assay: Enzyme Inhibition Biochemical Assay
Method: Recombinant full length human OGA enzyme was purchased from Origene. 4-MUGlcNAc substrate was purchased from Sigma. All other reagents were purchased from Sigma or Fisher. Assay buffer consists of the McIlvaine buffer system, pH 6.4 (0.2M Na2HPO4 mixed with 0.1M citric acid) and 0.01% BSA. […] Reactions were incubated for 90 minutes at room temperature and quenched with 40 μl of 3M glycine, pH 10 and read on a Perkin Elmer Envision plate reader (Ex: 355 nm/Em: 460 nm). Compounds were tested with a 10-point dose-response starting from 20 μM with a 4-fold dilution. Data was fit using GraphPad Prism using a 4-parameter fit with variable slope.

IC50: < 1 nM
SMILES: CC(=O)Nc1ncc(CN2C[C@H](Oc3cc(=O)n(C)cn3)C[C@@H]2C)s1 [US20240308995, Example 1-70]
